pIC50: −log10 of the molar value.
Biological target: T1, sodium-proton exchanger of subtype 3 (NHE3) (Homo sapiens, UniProt P48764)
T1 construct: expressed in transfected cells
T1 sequence (P48764 26-834): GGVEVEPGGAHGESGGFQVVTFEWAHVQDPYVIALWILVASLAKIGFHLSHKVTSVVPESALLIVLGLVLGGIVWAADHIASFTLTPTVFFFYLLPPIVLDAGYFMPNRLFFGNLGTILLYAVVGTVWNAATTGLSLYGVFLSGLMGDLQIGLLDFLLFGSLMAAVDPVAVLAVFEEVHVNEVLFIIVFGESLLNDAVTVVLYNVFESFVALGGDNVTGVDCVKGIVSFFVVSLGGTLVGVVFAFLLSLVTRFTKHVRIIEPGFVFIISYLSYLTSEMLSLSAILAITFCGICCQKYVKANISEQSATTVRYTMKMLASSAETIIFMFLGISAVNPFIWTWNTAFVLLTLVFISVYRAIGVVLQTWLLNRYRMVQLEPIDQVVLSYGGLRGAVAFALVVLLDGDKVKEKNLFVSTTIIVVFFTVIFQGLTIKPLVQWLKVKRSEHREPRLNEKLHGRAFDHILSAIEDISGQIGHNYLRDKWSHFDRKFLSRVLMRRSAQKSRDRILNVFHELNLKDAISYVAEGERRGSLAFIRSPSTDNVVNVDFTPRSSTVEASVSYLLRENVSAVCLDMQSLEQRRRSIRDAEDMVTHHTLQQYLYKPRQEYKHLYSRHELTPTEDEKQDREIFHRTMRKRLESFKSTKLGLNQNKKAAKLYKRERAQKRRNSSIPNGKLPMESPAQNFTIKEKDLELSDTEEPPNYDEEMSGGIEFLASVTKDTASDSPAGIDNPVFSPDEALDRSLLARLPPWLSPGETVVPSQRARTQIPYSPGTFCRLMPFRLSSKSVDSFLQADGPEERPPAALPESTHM
Test: Recovery of intracellular pH (pHi) after acidification in LAP1 cells stably expressing NHE3 (BCECF fluorescence, FLIPR)
Format: cell-based
Conditions: Activity range (inhibitory effect on NHE3), LAP1 cells stably expressing NHE3; pH recovery after acidification; range 1 is % inhibition at 10 μM

For `N#Cc1ccc(O[C@H]2c3ccccc3C[C@@H]2N2CCCC2)cc1Cl` (racemic) [Example 392, 2-chloro-4-(rac-trans-(1,2)-2-pyrrolidin-1-ylindan-1-yloxy)benzonitrile], the pIC50 was 5.00 to 6.00.

Same assay, conditions: LAP1 cells stably expressing NHE3; pH recovery after acidification; range 1 is % inhibition at 10 μM; read-out: Activity range (inhibitory effect on NHE3)

`N[C@@H]1CCCN([C@H]2CCc3ccccc3[C@@H]2Oc2ccc(N3CCNCC3)cc2)C1` (racemic) [Example 75, (R)-1-[rac-trans-(1,2)-1-(4-piperazin-1-ylphenoxy)-1,2,3,4-tetrahydronaphthalen-2-yl]piperidin-3-ylamine] and `N[C@H]1CCCN([C@H]2CCc3ccccc3[C@@H]2Oc2ccc(OC(F)F)cc2)C1` (racemic) [Example 176, (S)-1-[rac-trans-(1,2)-1-(4-difluoromethoxyphenoxy)-1,2,3,4-tetrahydronaphthalen-2-yl]piperidin-3-ylamine] fall in the same range of inhibition at 10 µM: 20 to 50% for the first, 20 to 50% for the second.

`CS(=O)(=O)c1ccccc1O[C@H]1c2cc(Cl)cc(Cl)c2C[C@@H]1N1CCC1` [Example 245, 1-[(1S,2S)-4,6-dichloro-1-(2-methanesulfonylphenoxy)indan-2-yl]azetidine] and `CS(=O)(=O)c1ccc(O[C@H]2c3cc(Cl)cc(Cl)c3C[C@@H]2N2CCC(S(C)(=O)=O)C2)cc1` (mixture of isomers) [Example 249, 1-[(1S,2S)-4,6-dichloro-1-(4-methanesulfonylphenoxy)indan-2-yl]-3-methanesulfonylpyrrolidine] fall in the same range of inhibition at 10 µM: 20 to 50% for the first, 20 to 50% for the second.

`CN(C)C[C@H]1Cc2c(Cl)cc(Cl)cc2[C@@H]1Oc1ccc(S(C)(=O)=O)cc1` (racemic) [Example 217, [rac-trans-(1,2)-4,6-dichloro-1-(4-methanesulfonylphenoxy)indan-2-ylmethyl]dimethylamine] and `C[C@@]1(N2CCCC2)Cc2ccccc2[C@H]1Oc1ccc(S(C)(=O)=O)cc1` (racemic) [Example 252, 1-[1-(4-methanesulfonylphenoxy)-2-methylindan-2-yl]pyrrolidine] fall in the same range of inhibition at 10 µM: 20 to 50% for the first, 20 to 50% for the second.

`N[C@@H]1CCCN([C@H]2CCc3ccccc3[C@@H]2Oc2cccc(F)c2)C1` (racemic) [Example 57, (R)-1-[rac-trans-(1,2)-1-(3-fluorophenoxy)-1,2,3,4-tetrahydronaphthalen-2-yl]piperidin-3-ylamine] and `NS(=O)(=O)c1ccc(O[C@H]2c3ccccc3C[C@@H]2NCc2ccccc2)c(F)c1` (racemic) [Example 459, 4-(2-benzylaminoindan-1-yloxy)-3-fluorobenzenesulfonamide] fall in the same range of inhibition at 10 µM: 20 to 50% for the first, 20 to 50% for the second.

`CC(=O)Nc1cccc(O[C@H]2c3cc(Cl)cc(Cl)c3C[C@@H]2N2CC[C@@H](CO)C2)c1` [Example 695, N-{3-[trans-(1S,2S)-4,6-dichloro-2-((R)-3-hydroxymethylpyrrolidin-1-yl)indan-1-yloxy]phenyl}acetamide] and `CC(=O)Nc1cccc(O[C@H]2c3ccccc3C[C@@H]2N2CC[C@@H](CO)C2)c1` (racemic) [Example 680, N-{3-[rac-trans-(1,2)-2-((R)-3-hydroxymethylpyrrolidin-1-yl)indan-1-yloxy]phenyl}acetamide] fall in the same range of pIC50: 5.00 to 6.00 for the first, 5.00 to 6.00 for the second.

Compared with `CS(=O)(=O)c1ccc(OC2c3ccccc3CC2N2CCC[C@@H](N)C2)c(Cl)c1` (mixture of isomers) [Example 37, (R)-1-[rac-trans-(1,2)-1-(2-chloro-4-methanesulfonylphenoxy)indan-2-yl]piperidin-3-ylamine], `N[C@@H]1CCCN([C@@H]2Cc3ccccc3[C@H]2Oc2ccc3c(c2)OCO3)C1` (racemic) [Example 83, (R)-1-[rac-trans-(1,2)-1-(benzo[1,3]dioxol-5-yloxy)indan-2-yl]piperidin-3-ylamine] is lower in pIC50: > 6.00 for the first, 5.00 to 6.00 for the second.

`CS(=O)(=O)c1ccc(O[C@H]2c3cc(Cl)cc(Cl)c3C[C@@H]2N2CCC[C@@H](NCCF)C2)cc1` [Example 222, {(R)-1-[trans-(1S,2S)-4,6-dichloro-1-(4-methanesulfonylphenoxy)indan-2-yl]piperidin-3-yl}-(2-fluoroethyl)amine] and `NS(=O)(=O)c1ccc(O[C@H]2c3cc(Cl)cc(Cl)c3C[C@@H]2N2CCCC2)cc1` [Example 457, 4-((1S,2S)-4,6-dichloro-2-pyrrolidin-1-ylindan-1-yloxy)benzenesulfonamide] cannot be ordered by pIC50: > 6.00 for the first, > 6.00 for the second.

`NCC1CCN([C@@H]2Cc3ccccc3[C@H]2Oc2ccc(Br)cc2-c2cc[nH]n2)C1` (mixture of isomers) [Example 600, C-(1-{rac-trans-(1,2)-1-[4-bromo-2-(1H-pyrazol-3-yl)phenoxy]indan-2-yl}pyrrolidin-3-yl)methylamine] and `COCCc1ccc(O[C@@H]2c3ccccc3C[C@H]2N2CCC(CN)C2)cc1` (mixture of isomers) [Example 598, C-(1-{rac-trans-(1,2)-1-[4-(2-methoxyethyl)phenoxy]indan-2-yl}pyrrolidin-3-yl)methylamine] fall in the same range of pIC50: 5.00 to 6.00 for the first, 5.00 to 6.00 for the second.

`Cc1c(Cl)cccc1O[C@@H]1c2ccccc2C[C@H]1N1C[C@H]2CNC[C@H]2C1` (racemic) [Example 6, 2-[rac-trans-(1,2)-1-(3-chloro-2-methylphenoxy)indan-2-yl]octahydropyrrolo[3,4-c]pyrrole] and `N[C@H]1CCCN([C@@H]2Cc3ccccc3[C@H]2Oc2cccc3ncccc23)C1` (racemic) [Example 194, (S)-1-[rac-trans-(1,2)-1-(quinolin-5-yloxy)indan-2-yl]piperidin-3-ylamine] fall in the same range of pIC50: 5.00 to 6.00 for the first, 5.00 to 6.00 for the second.

`O=C(O)COC(=O)Nc1ccc(O[C@H]2c3cc(Cl)cc(Cl)c3C[C@@H]2N2CC[C@@H](O)C2)c(Cl)c1` [Example 236, {3-chloro-4-[(1S,2S)-4,6-dichloro-2-((R)-3-hydroxypyrrolidin-1-yl)indan-1-yloxy]phenylcarbamoyloxy}acetic acid] and `CN1CC(=O)N(c2ccc(Cl)c(O[C@H]3c4cc(Cl)cc(Cl)c4C[C@@H]3N3CC[C@@H](O)C3)c2)C1=O` [Example 430, 3-{4-chloro-3-[(1S,2S)-4,6-dichloro-2-((R)-3-hydroxypyrrolidin-1-yl)indan-1-yloxy]phenyl}-1-methylimidazolidine-2,4-dione] cannot be ordered by pIC50: > 6.00 for the first, > 6.00 for the second.

`CN1CCN(c2cccc(O[C@H]3c4cc(Cl)cc(Cl)c4C[C@@H]3N3CCNCC3)c2)C1=O` (racemic) [Example 258, 1-[3-(rac-trans-(1,2)-4,6-dichloro-2-piperazin-1-ylindan-1-yloxy)phenyl]-3-methylimidazolidin-2-one] and `Cn1ccn(-c2ccc(F)c(O[C@H]3c4cc(Cl)cc(Cl)c4C[C@@H]3N3CC[C@@H](O)C3)c2)c1=O` [Example 313, 1-{3-[(1S,2S)-4,6-dichloro-2-((R)-3-hydroxypyrrolidin-1-yl)indan-1-yloxy]-4-fluorophenyl}-3-methyl-1,3-dihydroimidazol-2-one] cannot be ordered by pIC50: > 6.00 for the first, > 6.00 for the second.

First: NCC1CCN([C@@H]2Cc3ccccc3[C@H]2Oc2ccc(NC(=O)OCc3ccccc3)cc2)C1 (mixture of isomers) [Example 240, {4-[rac-trans-(1,2)-2-(3-aminomethylpyrrolidin-1-yl)indan-1-yloxy]phenyl}carbamic acid benzyl ester]
Second: CS(=O)(=O)c1ccc(O[C@H]2c3ccccc3C[C@@H]2N2CCCC2)cc1 (racemic) [Example 273, 1-[rac-trans-(1,2)-1-(4-methanesulfonylphenoxy)indan-2-yl]pyrrolidine]
The pIC50 of the first is lower: 5.00 to 6.00 for the first, > 6.00 for the second. The second is the more potent here.

First: Cc1nnc(C)n1-c1ccc(O[C@H]2c3cc(Cl)ccc3C[C@@H]2N2CC[C@H](F)C2)c(Cl)c1 [Example 559, 4-{3-chloro-4-[trans-(1S,2S)-6-chloro-2-((S)-3-fluoropyrrolidin-1-yl)indan-1-yloxy]phenyl}-3,5-dimethyl-4H-[1,2,4]triazole]
Second: COC[C@@H]1CCCN1[C@H]1Cc2c(Cl)cc(Cl)cc2[C@@H]1Oc1ccc(-n2c(C)nnc2C)cc1 [Example 562, 4-{4-[trans-(1S,2S)-4,6-dichloro-2-((S)-2-methoxymethylpyrrolidin-1-yl)indan-1-yloxy]phenyl}-3,5-dimethyl-4H-[1,2,4]triazole]
The pIC50 of the first is higher: > 6.00 for the first, 5.00 to 6.00 for the second. The first is the more potent here.

`CCn1cnn(-c2ccc(O[C@H]3c4cc(Cl)cc(Cl)c4C[C@@H]3N3CC[C@@H](O)C3)cc2)c1=O` [Example 736, 2-{4-[trans-(1S,2S)-4,6-Dichloro-2-((R)-3-hydroxy-pyrrolidin-1-yl)-indan-1-yloxy]-phenyl}-4-ethyl-2,4-dihydro-[1,2,4]triazol-3-one] and `O=C1CNC(=O)N1c1ccc(F)c(O[C@H]2c3cc(Cl)cc(Cl)c3C[C@@H]2N2CC[C@@H](O)C2)c1` [Example 417, 3-{3-[(1S,2S)-4,6-dichloro-2-((R)-3-hydroxypyrrolidin-1-yl)indan-1-yloxy]-4-fluorophenyl}imidazolidine-2,4-dione] fall in the same range of pIC50: 5.00 to 6.00 for the first, 5.00 to 6.00 for the second.

With `N#Cc1ccc(O[C@H]2c3ccccc3CC[C@@H]2N2CCC[C@@H](N)C2)c(F)c1F` (racemic) [Example 509, 4-[rac-trans-(1,2)-2-((R)-3-aminopiperidin-1-yl)-1,2,3,4-tetrahydronaphthalen-1-yloxy]-2,3-difluorobenzonitrile] the pIC50 was 5.00 to 6.00.

Reference: patent US8822449B2, “Substituted aminoindanes and analogs thereof, and the pharmaceutical use thereof” (Sanofi, priority 2008, dated 2014)
